# What was measured:
# Experiment in all cases: relative viability (nuclei count vs DMSO), 5 days (fraction); higher = more cells survive
# Wnt-C59 + Dasatinib = compound: CC1=NC=CC(=C1)C2=CC=C(C=C2)CC(=O)NC3=CC=C(C=C3)C4=CN=CC=C4 [Wnt-C59] + Cc1nc(Nc2ncc(C(=O)Nc3c(C)cccc3Cl)s2)cc(N2CCN(CCO)CC2)n1 [Dasatinib] (partner 0.075 µM)
# Summary of the method: (§1)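 Lung cancer cell lines in 1536-well plates got either a single drug or a fixed anchor-drug dose together with five library-drug doses (not always all listed) in √10 steps, by pin tool, on the day after seeding. Nuclei were counted after 5 days, and relative viability is the treated-to-vehicle ratio of nuclei counts. Values are medians of duplicate plates.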
# Lapatinib + Navitoclax = compound: CS(=O)(=O)CCNCc1ccc(-c2ccc3ncnc(Nc4ccc(OCc5cccc(F)c5)c(Cl)c4)c3c2)o1 [Lapatinib] + CC1(C)CCC(c2ccc(Cl)cc2)=C(CN2CCN(c3ccc(C(=O)NS(=O)(=O)c4ccc(N[C@H](CCN5CCOCC5)CSc5ccccc5)c(S(=O)(=O)C(F)(F)F)c4)cc3)CC2)C1 [Navitoclax] (partner 0.5 µM)
# Summary of the method: as §1
# Lapatinib + Decitabine = compound: CS(=O)(=O)CCNCc1ccc(-c2ccc3ncnc(Nc4ccc(OCc5cccc(F)c5)c(Cl)c4)c3c2)o1 [Lapatinib] + Nc1ncn([C@H]2C[C@H](O)[C@@H](CO)O2)c(=O)n1 [Decitabine] (partner 2 µM)
# Summary of the method: as §1
# Lapatinib + Olaparib = compound: CS(=O)(=O)CCNCc1ccc(-c2ccc3ncnc(Nc4ccc(OCc5cccc(F)c5)c(Cl)c4)c3c2)o1 [Lapatinib] + O=C(c1cc(Cc2n[nH]c(=O)c3ccccc23)ccc1F)N1CCN(C(=O)C2CC2)CC1 [Olaparib] (partner 8 µM)
# Summary of the method: as §1
Cell Line,relative viability (Wnt-C59 + Dasatinib; first compound 0.001 µM),relative viability (Wnt-C59 + Dasatinib; first compound 0.01 µM),relative viability (Wnt-C59 + Dasatinib; first compound 0.03162 µM),relative viability (Wnt-C59 + Dasatinib; first compound 0.1 µM),relative viability (Lapatinib + Navitoclax; first compound 0.02 µM),relative viability (Lapatinib + Navitoclax; first compound 0.06325 µM),relative viability (Lapatinib + Navitoclax; first compound 0.2 µM),relative viability (Lapatinib + Navitoclax; first compound 0.6325 µM),relative viability (Lapatinib + Navitoclax; first compound 2 µM),relative viability (Lapatinib + Decitabine; first compound 0.02 µM),relative viability (Lapatinib + Decitabine; first compound 0.06325 µM),relative viability (Lapatinib + Decitabine; first compound 0.2 µM),relative viability (Lapatinib + Decitabine; first compound 0.6325 µM),relative viability (Lapatinib + Decitabine; first compound 2 µM),relative viability (Lapatinib + Olaparib; first compound 0.02 µM),relative viability (Lapatinib + Olaparib; first compound 0.06325 µM),relative viability (Lapatinib + Olaparib; first compound 0.2 µM),relative viability (Lapatinib + Olaparib; first compound 0.6325 µM),relative viability (Lapatinib + Olaparib; first compound 2 µM)
NCI-H3122,0.824,0.951,0.893,0.894,1.01,1,1.01,0.968,1.01,0.426,0.364,0.376,0.456,0.421,0.582,0.576,0.595,0.627,0.558
PC-3 [JPC-3],1.01,1.05,1.13,1.07,,0.797,0.779,0.885,0.689,,0.786,,0.954,0.598,,1.09,,1.16,0.883
PC-14,0.309,0.257,0.242,0.241,0.956,0.991,0.958,0.985,0.839,0.271,0.277,0.246,0.223,0.193,0.209,0.286,0.291,0.263,0.217
RERF-LC-KJ,0.866,0.847,1.04,0.79,0.933,0.894,0.755,0.888,0.592,0.679,0.62,0.749,0.645,0.499,0.934,0.896,0.947,0.811,0.682
SK-LU-1,0.184,0.187,0.198,0.187,,0.831,0.747,0.876,1.29,0.709,0.558,0.686,0.609,0.618,0.298,0.449,0.565,0.555,0.433
SK-MES-1,0.393,0.264,0.39,0.337,1.13,,1.25,0.783,0.573,0.429,0.364,0.37,0.306,0.311,0.726,0.699,0.569,0.464,0.221
SW 1573,0.557,0.699,0.67,0.314,0.902,0.974,1.16,0.92,0.882,0.492,0.437,0.565,0.633,0.489,0.401,0.443,0.519,0.444,0.522

# — the supplement of paper PMC10307832
